Data: patent US7638521B2, “3-guanidinocarbonyl-1-heteroaryl-indole derivatives, preparation process, their use as medicaments, and pharmaceutical compositions comprising them” (sanofi-aventis Deutschland GmbH, priority 2002, dated 2009)
Where a name gives a salt, the structure may show the parent alone.

How the values were obtained:
NHE-1 subtype = target: T1, NHE-1 subtype (Homo sapiens, UniProt P19634); assay: NHE inhibition FLIPR test (intracellular pH recovery, BCECF) in transfected LAP-1 cells; type: cell-based; conditions: transfected LAP-1 cell line expressing NHE-1 subtype, pHi recovery after acidification, read-out: IC50 (NHE1)
T1 construct: expressed in transfected cells; host or cells: LAP-1 (parental line without endogenous NHE activity), G418 selection
Description: The NHE inhibitory activities (IC50 values) of the compounds according to the invention were determined by a FLIPR test. The test is performed in the FLIPR (Fluorescent Imaging Plate Reader) equipped with clear-bottomed and black-walled 96-well microtitration plates. […] The growth medium for the transfected cells (Iscove+10% foetal calf serum) also comprises G418 as selection antibiotic to ensure the presence of transfected sequences. The actual test begins by eliminating the growth medium and adding 100 μl of loading buffer per well (5 μM of BCECF-AM [2′,7′-bis(2-carboxyethyl)-5-(6)-carboxyfluoresceine acetoxymethyl ester] in 20 mM of NH4Cl, 115 mM of choline chloride, 1 mM of CaCl2, 5 mM of KCl, 20 mM of HEPES and 5 mM of glucose; pH 7.4 (adjusted with KOH). The cells are then incubated for 20 minutes at 37° C. This incubation results in the loading of the fluorescent dye into the cells, the fluorescence intensity of which depends on the pHi, and on the NH4Cl, which results in a slight basification of the cells. The precursor BCECF-AM, a non-fluorescent dye, is, as an ester, capable of crossing the membrane. The actual dye, which is incapable of crossing the membrane, is released inside the cell by esterases. After this 20-minute incubation, the loading buffer, which comprises NH4Cl and free BCECF-AM, is removed by washing three times in the cell washing device (Tecan Columbus), each wash being performed with 400 μl of washing buffer (133.8 mM of choline chloride, 4.7 mM of KCl, 1.25 mM of MgCl2, 1.25 mM of CaCl2, 0.97 mM of K2HPO4, 0.23 mM of KH2PO4, 5 mM of HEPES and 5 mM of glucose; pH 7.4 (adjusted with KOH)). The residual volume remaining in the wells is 90 μl (possibly between 50 and 125 μl). This washing step removes the free BCECF-AM and results in an intracellular acidification (pHi of 6.3-6.4) due to the removal of the external ammonium ions. As the equilibrium of the intracellular ammonium with the aqueous ammonia and the protons, by removal of the extracellular ammonium and by the subsequent immediate crossing of the aqueous ammonia across the cell membrane, is disrupted, the washing process results in intracellular protons remaining, which is the cause of the intracellular acidification. This acidification can result finally in the death of the cells if it lasts long enough. It is important here for the washing buffer to be free of sodium (<1 mM), otherwise the extracellular sodium ions would result in an immediate increase in the pHi on account of the activity of the cloned NHE isoforms. It is also important for all the buffers used (loading buffer, washing buffer and regeneration buffer) not to contain any HCO3-ions, otherwise the presence of bicarbonate would result in the activation of bicarbonate-dependent systems that disrupt the pHi regulation, which systems are contained in the LAP-1 parental cell line. The microtiter plates containing acidified cells are then transferred (up to 20 minutes after the acidification) to the FLIPR. In the FLIPR, the intracellular fluorescent dye is activated with light of a wavelength of 488 nm, which is generated by an argon laser, and the measuring parameters (laser power, illumination time and diaphragm of the […] camera integrated into the FLIPR) are chosen such that the average value of the fluorescent signal per well is between 30,000 and 35,000 relative fluorescence units. The actual measurement in the FLIPR starts with a photograph being taken by the CCD camera every two seconds under software control. After 10 seconds, the increase in the intracellular pH is initiated by adding 90 μl of regeneration buffer (133.8 mM of NaCl, 4.7 mM of KCl, 1.25 mM of MgCl2, 1.25 mM of CaCl2, 0.97 mM of K2HPO4, 0.23 mM of KH2PO4, 10 mM of HEPES and 5 mM of glucose; pH 7.4 (adjusted with NaOH)) using a 96-well pipette device incorporated into the FLIPR. Some wells, to which is added pure regeneration buffer, serve as positive controls (100% NHE activity). […]

T1 sequence (P19634 whole entry): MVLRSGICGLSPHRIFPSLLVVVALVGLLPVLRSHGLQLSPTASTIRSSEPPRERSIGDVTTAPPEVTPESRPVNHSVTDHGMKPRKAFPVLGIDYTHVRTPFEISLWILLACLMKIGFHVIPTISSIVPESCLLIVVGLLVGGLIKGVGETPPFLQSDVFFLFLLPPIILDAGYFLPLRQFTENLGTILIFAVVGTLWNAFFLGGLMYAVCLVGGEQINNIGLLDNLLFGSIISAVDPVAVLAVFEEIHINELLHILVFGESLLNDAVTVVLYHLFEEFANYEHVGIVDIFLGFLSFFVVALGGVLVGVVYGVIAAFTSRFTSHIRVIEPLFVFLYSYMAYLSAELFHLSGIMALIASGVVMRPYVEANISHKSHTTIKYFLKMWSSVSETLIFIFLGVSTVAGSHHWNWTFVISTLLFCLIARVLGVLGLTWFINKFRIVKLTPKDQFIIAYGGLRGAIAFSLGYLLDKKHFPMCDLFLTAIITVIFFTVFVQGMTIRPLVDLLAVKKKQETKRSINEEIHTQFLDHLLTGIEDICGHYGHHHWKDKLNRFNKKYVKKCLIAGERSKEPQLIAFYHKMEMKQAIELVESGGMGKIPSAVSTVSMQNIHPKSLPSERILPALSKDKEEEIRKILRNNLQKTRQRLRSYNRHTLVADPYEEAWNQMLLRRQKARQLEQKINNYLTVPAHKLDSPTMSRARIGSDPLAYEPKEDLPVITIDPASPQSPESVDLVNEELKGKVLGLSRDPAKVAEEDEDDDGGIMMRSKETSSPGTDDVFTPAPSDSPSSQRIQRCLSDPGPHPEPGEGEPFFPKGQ

Row | SMILES | IC50 (NHE-1 subtype) [nM] | melting point [°C]
1 | Cl.N=C(N)NC(=O)c1cn(-c2cc(C(F)(F)F)nc3ccccc23)c2ccccc12 [Example 1, 3-Guanidinocarbonyl-1-(2-(trifluoromethyl)quinol-4-yl)-1H-indole hydrochloride] | 2360 | 216
2 | Cl.N=C(N)NC(=O)c1cn(-c2ccnc3ccc(C(F)(F)F)cc23)c2ccccc12 [Example 2, 3-Guanidinocarbonyl-1-(6-(trifluoromethyl)quinol-4-yl)-1H-indole hydrochloride] | 220 | 260
3 | Cl.N=C(N)NC(=O)c1cn(-c2ccnc3cc(C(F)(F)F)ccc23)c2ccccc12 [Example 3, 3-Guanidinocarbonyl-1-(7-(trifluoromethyl)quinol-4-yl)-1H-indole hydrochloride] | 250 | 238
4 | Cl.N=C(N)NC(=O)c1cn(-c2ccnc3c(C(F)(F)F)cccc23)c2ccccc12 [Example 4, 3-Guanidinocarbonyl-1-(8-(trifluoromethyl)quinol-4-yl)-1H-indole hydrochloride] | 1470 | 212
5 | COc1ccc2nccc(-n3cc(C(=O)NC(=N)N)c4ccccc43)c2c1.Cl [Example 5, 3-Guanidinocarbonyl-1-(6-methoxyquinol-4-yl)-1H-indole hydrochloride] | 120 | 266
6 | COc1ccc2c(-n3cc(C(=O)NC(=N)N)c4ccccc43)ccnc2c1.Cl [Example 6, 3-Guanidinocarbonyl-1-(7-methoxyquinol-4-yl)-1H-indole hydrochloride] | 240 | 266
7 | Cl.Cn1ccc2c(-n3cc(C(=O)NC(=N)N)c4ccccc43)ncnc21 [Example 7, 3-Guanidinocarbonyl-1-(7-methyl-7H-pyrrolo[2,3-d]pyrimidin-4-yl)-1H-indole hydrochloride] | 1.2 | 244
8 | Cc1cc(-n2cc(C(=O)N=C(N)N)c3ccccc32)c2ccccc2n1 [Example 8, N-[1-(2-Methyl-quinolin-4-yl)-1H-indole-3-carbonyl]-guanidine trifluoroacetate] | 7.2 | 
9 | NC(N)=NC(=O)c1cn(-c2ccnc3cc(Cl)ccc23)c2ccccc12 [Example 9, N-[1-(7-Chloro-quinolin-4-yl)-1H-indole-3-carbonyl]-guanidine trifluoroacetate] | 250 | 
10 | COc1ccc2c(c1)c(C(=O)N=C(N)N)c(C)n2-c1ccnc2cc(Cl)ccc12 [Example 10, N-[1-(7-Chloro-quinolin-4-yl)-5-methoxy-2-methyl-1H-indole-3-carbonyl]-guanidine trifluoroacetate] | 3230 | 
11 | NC(N)=NC(=O)c1cn(-c2ccnc3ccc(F)cc23)c2ccccc12 [Example 11, N-[1-(6-Fluoro-quinolin-4-yl)-1H-indole-3-carbonyl]-guanidine trifluoroacetate] | 10 | 
12 | COc1ccc2c(c1)c(C(=O)N=C(N)N)c(C)n2-c1ccnc2ccc(F)cc12 [Example 12, N-[1-(6-Fluoro-quinolin-4-yl)-5-methoxy-2-methyl-1H-indole-3-carbonyl]-guanidine trifluoroacetate] | 2640 | 
13 | NC(N)=NC(=O)c1cn(-c2ccnc3c(F)cccc23)c2ccccc12 [Example 13, N-[1-(8-Fluoro-quinolin-4-yl)-1H-indole-3-carbonyl]-guanidine trifluoroacetate] | 2.5 | 
14 | COc1ccc2c(c1)c(C(=O)N=C(N)N)c(C)n2-c1ncnc2ccc(Cl)cc12 [Example 14, N-[1-(6-Chloro-quinazolin-4-yl)-5-methoxy-2-methyl-1H-indole-3-carbonyl]-guanidine trifluoroacetate] | 2560 | 
